# Where two headings read alike, the source gives them in different places.
# Assays:
# clinical = details: human, in vivo
# Experimental: The second study was conducted during October 2007 to February 2008 at the Phnom Dék Health Centre, Rovieng district, Preah Vihear province, Cambodia. Entry criteria and study procedures were identical as in the Tanzanian study with minor adaptations described below. […] Pregnant or lactating women were excluded. Three doses of AS (Arsumax®, Sanofi-Aventis, France) and MQ (Eloquine®, Medochemie Ltd, Cyprus) were given according to body weight on three consecutive days (see Table 1). Patients were seen by the clinical officer on days 1, 2, 3, 7, 14, 21, 28, 35 and 42. Sampling for the pharmacokinetic study was done at pre-dose and approximately 1 h after first dose intake on day 0, and on days 1, 2, 7 and 14 at pre-defined random times after drug intake.
# Samples of 2 ml of venous blood were collected on an EDTA Vacutainer and kept on ice for no longer than 6 h after withdrawal and then aliquoted into whole blood, plasma and pellet and immediately stored in liquid nitrogen or a –80°C freezer. […] The method was validated according to FDA recommendations, including assessment of extraction yield, matrix effect variability, overall process efficiency, standard addition experiments as well as anti-malarials short- and long-term stability in plasma. […] The laboratory is part of the quality control system of the World-Wide Antimalarial Resistance Network (WWARN).
# The pharmacokinetic analysis for each drug taken separately was performed using the NONMEM computer program Version 6 (NM-TRAN version II). It uses mixed (fixed and random) effects regression to estimate population means and variances of the pharmacokinetic parameters and to identify factors that influence them.
# One-, two- and three-compartment pharmacokinetic models with first-order absorption, with and without absorption lag times, were compared. Additional one or two-compartments were used for anti-malarials presenting metabolite concentrations (AM and LF). The final parameters estimated were systemic clearance (CL/F), inter-compartmental clearance (Q/F), central volume of distribution (VC/F), peripheral volume of distribution (VP/F) and absorption rate constant (ka). Since no intravenous drug concentration data were available, these parameters represent apparent values. Where available, metabolite data were included into the model and metabolism rate constant from drug compartment to metabolite compartment (k23) and metabolite clearance (CLmet) were also estimated. Owing to identifiability problems, the volume of distribution of the metabolites (VM) DLF and DHA were assumed to equal LF and AM VC, respectively. […] The observed baseline residual plasma concentrations were fitted by estimating a factor (F0) that provided an estimation of the residual doses from previous treatment.
# Exponential errors following a log-normal distribution were assumed for the description of inter-patient variability of the pharmacokinetic parameters and were of the form: θi=θ×e^ηj where θi is the individual pharmacokinetic parameter value in the j^th individual, θ is the population parameter estimate, and ηj is the random effect value, which is independently and normally distributed with a mean of 0 and variance ω^2. Proportional and combined proportional-and-additive error models were compared to describe intra-patient (residual) variability for the mother compound, and if available for its metabolite using Cpij(1 + ϵ1ij) + ϵ2ij or Cmij(1 + ϵ3ij) + ϵ4ij, where Cpij are the corresponding predicted i^th drug plasma concentration and Cmij are the predicted metabolite concentration for the j^th individual, and ϵ1ij, ϵ2ij, ϵ3ij, ϵ4ij, are independent normally distributed residual error terms with a mean of zero and a variance of σ^2_1, σ^2_2, σ^2_3, σ^2_4.
# The covariate analysis was performed using a stepwise insertion/deletion approach. […]
# [1] = cited from earlier work
# malaria = test system: malaria; design: method as in PMID 10579474; details: cited from earlier work
# [2] = patients, median age 9.3 (4–15) years, n 74, sampling 28 days
# [3] = patients, median age 14.8 (8–61) years, n 128, sampling 28 days
# [4] = patients, median age 19 (2–55) years, n 50, sampling 63 days
# [5] = prophylaxis, mean age 26 (18–55) years, n 1,111, sampling 26 weeks
smiles,measurement,setting,value
"OC(c1cc(C(F)(F)F)nc2c(C(F)(F)F)cccc12)C1CCCCN1 (centres unmarked) [Mefloquine, mefloquine]","CL (clearance), population estimate",clinical,0.10 × BW^0.75 L/h/kg
same,"CL, bootstrap mean of 200",clinical,0.10 × BW^0.75 L/h/kg
same,"F0 (residual amount from the previous treatment), population estimate",clinical,33.1 mg
same,"F0, bootstrap mean of 200",clinical,31.0 mg
same,IIV (inter-individual variability) of CL,clinical,12%
same,IIV (inter-individual variability) of F0,clinical,175%
same,IIV (inter-individual variability) of VC,clinical,19%
same,"VC (central volume of distribution), population estimate",clinical,8.93 × BW L/kg
same,"VC, bootstrap mean of 200",clinical,9.01 × BW L/kg
same,Vd,clinical,625 L
same,clearance,clinical,40 mL/min
same,inter-individual variability in concentration exposure,clinical,~12%
same,"ka (first-order absorption rate constant), population estimate",clinical,0.15 h⁻¹
same,"ka, bootstrap mean of 200",clinical,0.15 h⁻¹
same,residual dose (F0) as percentage of an initial dose,clinical,6.7–26.7%
same,"σC, bootstrap mean of 200",clinical,43%
same,"σC, residual error for the central compartment, population estimate",clinical,43%
same,"CL, population estimate for a person of 70 kg",[1]; [2],3.71 L/h
same,"VSS, population estimate for a person of 70 kg",[1]; [2],"1,089.2 L"
same,"CL, population estimate for a person of 70 kg",[1]; [3],1.4 L/h
same,"VSS, population estimate for a person of 70 kg",[1]; [3],574.7 L
same,"CL, population estimate for a person of 70 kg",[1]; [4],2.1 L/h
same,"VSS, population estimate for a person of 70 kg",[1]; [4],767.62 L
same,"CL, population estimate for a person of 70 kg",[1]; [5],1.75 L/h
same,"VSS, population estimate for a person of 70 kg",[1]; [5],863 L
same,"minimal inhibitory concentration, MIC (drug plasma concentration)",malaria,0.5 µg/mL
